Measurements as given in patent US20200283728A1, “MODIFIED T CELLS AND USES THEREOF” (MUSC FOUNDATION FOR RESEARCH DEVELOPMENT, priority 2017, published 2020).

Legend:
Wnt/β-catenin pathway = Wnt/β-catenin pathway expression in Th17 cells (Western blot, real-time PCR); format: cell-based, mouse
Procedure: Total RNA isolation was performed using the Trizol method (Life Technologies) according to the manufacturer's procedure. RNA quantity and purity was assessed using a NanoDrop ND-1000. 1 μg total RNA was transcribed with Transcriptor First Strand cDNA Synthesis Kit (Roche). qReal-time PCR was performed on LightCycler480 machine following manufacturer's protocols (Roche). Probes utilized include Rorc, IL-17, Cmaf IL-21, Cpt-1a, Tcf-7, Lef-1, Cnnb1. All probes are commercially available (ABI). Relative gene expression was determined by the comparative CT method (45). β-actin was used as housekeeping gene.
Nuclear and cytoplasmic protein were isolated by lysis using Nuclear and Cytoplasmic Extraction Reagent with Protease&Phosphatase Inhibitor Cocktail (ThermoScientific). Protein concentration was quantified using […] (ThermoScientific) according to the manufacturer's instructions. 10 to 30 μg of total protein was separated on a Mini-PROTEAN TGX, Any kD™ gel, followed by transfer onto PVDF membrane (Bio-Rad). The membranes were blocked with 5% BSA in TBS buffer containing 0.5% Tween20. The membranes were then incubated overnight at 4° C. with the primary antibodies to β-catenin (BD Bioscience), p110δ, Tcf7 (Abcam), RORγt (Affymetrix) phospho-Akt, total-Akt, STAT-3, Histone-3, Lef1 (abcam), and GAPDH (Cell Signaling) at the concentration recommended by manufactures. Subsequently, membranes were washed and incubated for 1 h at room temperature with (HRP)-conjugated goat antibodies to mouse or rabbit IgG (Cell Signaling). For detection of protein, chemiluminescence method was performed using Western ECL Blotting Substrate (Bio-Rad) followed by X-ray film-based imaging method (ThermoScientific). Quantification of optical density performed using Fiji analysis software (NIH).

[1] = system: ICOS-activated Th17 cells; experiment: Memory and regulatory phenotype of ICOS-stimulated Th17 cells expanded with inhibitors (flow cytometry); format: cell-based, mouse; conditions: day 8 in vitro
Procedure: Expansion of Th17 cells with Wnt/β-catenin and PI3K inhibitors in vitro: TRP-1 splenocytes were activated with irradiated (10Gy) C57BL/6 splenocytes pulsed with TRP-1 peptide (1 μM) added at a 5:1 ratio in 24-well plates (1 mL media containing 1.5×10^6 cells/well). TRP-1 splenocytes were co-stimulated with soluble ICOS agonist (Clone 398.4A, BioLegend) and polarized toward Th17 phenotype as describe above. For in vitro expansion from day 0 of culture 10 μM Ly294002 (Cayman Chemical) or 10 μM CAL-101 (Selleckchem) and/or 60 μM indomethacin (Sigma-Aldrich) was added. Also dimethylosulfoxide 0.01% (Sigma-Aldrich) was added as a control. Th17 cultures were also supplemented with hrIL-2 (100 IU/mL) and rmIL-23 ([…]; R&D). Medium, including cytokines and inhibitors was refreshed every 2-3 days.
Surface staining of Th17 cells was performed with anti-CD4-APCCy7, anti-Vβ14-FITC (BD Biosciences) anti-CD62L-APC, anti-CD44-PerCPCy5.5, anti-CCR6-PE, anti-CD69-PECy7, anti-CCR7-PE, anti-CD27-PE, anti-CD28-PerCPCy5.5, anti-ICOS-PE and anti-CD25-PECy7/FITC (BioLegend) and viability stain (Invitrogen) on day 8. For all intracellular staining of cytokines (anti-IL-17 PerCPCy5.5, anti-IFN-γ-v450, anti-IL-2-FITC, anti-IL-21-APC, anti-IL-22-PE, anti-TNF-α-FITC; BioLegend) and transcription factors (anti-RORγt-APC, anti-cMaf-PerCPCy5.5, anti-STAT-3-PE, anti-FoxP3-FITC/PE, anti-T-bet-v450; eBiosciences), cells were stimulated for 4-5 h with 50 ng/mL PMA and 750 ng/mL ionomycin (Sigma-Aldrich). Additional antibodies used include: CD127-PECy7 clone A019D5, CD25-APCCy7 clone BC96, CD4-APCCy7 OKT4, CD45RO-APC clone UCHL1, CD62L-FITC clone DREG-56, CD8-PerCPCy5.5 clone SKI, TIM3-PE clone F38-2E2 (biolegend); CCR7-PECy7 clone CCR7, CD8-V450 clone RPA-T8, PD1-FITC clone M1H4, (BD Biosciences). […] Data were analyzed with FlowJo software (TreeStar). […]

COc1ccc2c(c1)c(CC(=O)O)c(C)n2C(=O)c1ccc(Cl)cc1 [Indo, indomethacin] was tested, and the “nuclear β-catenin after re-stimulation” value (Wnt/β-catenin pathway; antigen specific re-stimulation in vitro) was “re-expressed β-catenin to the level observed in un-treated ICOS stimulated Th17 cells”, the “nuclear β-catenin expression” value (Wnt/β-catenin pathway; day 8, before re-stimulation / transfer) was “abolish β-catenin translocation to the nucleus” and the “central memory phenotype (CD44^highCD62L^high)” value [1] was “did not impact their memory phenotype”.
